Experimental findings from article PMC9046087, “Structural basis of tethered agonism of the adhesion GPCRs ADGRD1 and ADGRF1” (Nature, 2022) are described below.

Changes are numbered by the printed parent chain. Ends that are not written are not given here.

Experiment [1] addresses T1, ADGRF1 (Homo sapiens, UniProt Q5T601, L769A).
T1 construct: Flag (N); expressed in transfected cells; host or cells: HEK293F
T1 sequence (Q5T601 20-910 L769A): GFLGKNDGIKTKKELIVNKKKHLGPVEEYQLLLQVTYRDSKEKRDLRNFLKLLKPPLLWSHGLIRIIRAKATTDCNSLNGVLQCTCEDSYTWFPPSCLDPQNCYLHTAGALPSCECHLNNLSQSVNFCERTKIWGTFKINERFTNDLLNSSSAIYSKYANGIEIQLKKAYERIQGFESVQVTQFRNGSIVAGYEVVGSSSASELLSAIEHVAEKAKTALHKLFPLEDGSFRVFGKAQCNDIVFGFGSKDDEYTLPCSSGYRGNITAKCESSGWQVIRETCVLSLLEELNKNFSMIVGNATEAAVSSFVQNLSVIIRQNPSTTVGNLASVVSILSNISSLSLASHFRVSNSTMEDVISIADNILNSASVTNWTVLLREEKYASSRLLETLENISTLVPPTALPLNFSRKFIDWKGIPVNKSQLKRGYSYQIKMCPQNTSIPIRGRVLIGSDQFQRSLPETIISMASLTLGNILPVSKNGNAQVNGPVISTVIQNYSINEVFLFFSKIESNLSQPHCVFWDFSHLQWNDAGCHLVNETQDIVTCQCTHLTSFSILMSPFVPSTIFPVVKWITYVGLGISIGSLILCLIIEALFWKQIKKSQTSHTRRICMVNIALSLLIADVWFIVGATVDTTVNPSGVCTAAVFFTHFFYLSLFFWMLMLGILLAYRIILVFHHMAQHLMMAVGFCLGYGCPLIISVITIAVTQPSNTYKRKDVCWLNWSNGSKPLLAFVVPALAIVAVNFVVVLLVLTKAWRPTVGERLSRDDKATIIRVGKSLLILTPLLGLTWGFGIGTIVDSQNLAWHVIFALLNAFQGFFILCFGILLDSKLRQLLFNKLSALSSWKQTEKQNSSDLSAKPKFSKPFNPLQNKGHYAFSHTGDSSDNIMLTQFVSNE
The experiment is described as follows: BRET assay using TRUPATH biosensors, Gs activation of ADGRF1. Format: cell-based. As to the method:
(§1) To study the synthetic stalk peptide-induced G protein activation of ADGRD1 and ADGRF1, a BRET assay using TRUPATH biosensors was conducted to measure the proximal interaction between RLuc8 fused to the Gα subunit and GFP2 fused to the Gγ subunit. The TRUPATH suite of biosensors was obtained from Addgene (Addgene kit no. 1000000163) as a gift from B. Roth, including GαsS-RLuc8, Gαi1-RLuc8, Gβ3 and Gγ9-GFP2 as previously described.
(§2) The wild-type or mutant ADGRD1 and ADGRF1 were transiently co-transfected with plasmids encoding Gα-RLuc8 (GαsS-RLuc8 for Gs activation assay; Gαi1-RLuc8 for Gi activation assay), Gβ3 and Gγ9-GFP2 at a ratio of 2:1:1:1 (receptor plasmid, 800 ng; G protein subunit plasmids, 400 ng for each) in 2 ml HEK293F cells at a density of 1.2 × 10^6 cells per ml. Cell cultivation and receptor surface expression measurement were performed as described above. The cells were plated into 96-well white plates (40,000 cells per well) in 60 μl of assay buffer and incubated at 37 °C for 30 min. Then 10 μl of freshly prepared 50 μM coelenterazine 400a (Nanolight Technologies) was added. […] The cells were stimulated with 30 μl of synthetic stalk peptide at different concentrations and the BRET signals were monitored continuously five times. The last measurements were used in data analysis. The BRET ratios were calculated as the ratio of the GFP2 emission to RLuc8 emission.

The target of experiment [2] is T2, ADGRF1 (Homo sapiens, UniProt Q5T601, R623A).
T2 construct: Flag (N); expressed in transfected cells; host or cells: HEK293F
T2 sequence (Q5T601 20-910 R623A): T1 sequence (Q5T601 20-910 L769A) with R604A, A750L
Described as above. It counts as cell-based. The conditions noted are these: Gs, ADGRF1 R623^2.46bA, n = 3. As to the method: as §1, §2

Setting [3] is: read-out: pEC50 (mean ± s.e.m.) (converted).

Consider TSFSILMSPFVP [pF1], for which the “Emax (mean ± s.e.m.)” value was 73 ± 11 % of WT in experiment [1] (Gs, ADGRF1 L769^5.61bA, n = 3) and 57 ± 10 % of WT in experiment [2]. The EC50 in experiment [1] (setting [3]) is 151 nM; in experiment [2] (setting [3]) it was 148 nM.
